Results taken from article PMC10870435, “A novel complement C3 inhibitor CP40-KK protects against experimental pulmonary arterial hypertension via an inflammasome NLRP3 associated pathway” (Journal of Translational Medicine, 2024).
Bridge positions count the residues as written; N and C are the ends. Square brackets hold non-standard residues; d marks the D form. Peptide text beside a SMILES is read from it. Trp(1-Me) = Cn1cc(C[C@H](N)C(=O)O)c2ccccc21; NMeI = CC[C@H](C)[C@H](NC)C(=O)O; Sar = CNCC(=O)O

What was measured:
Tail bleeding time = type: in vivo, rat; details: rats, after 2 weeks of treatment
[1] = cited from earlier work
Description: The selective C3 inhibitor CP40 has been found therapeutically effective in various diseases, but has yet not been tested in the PAH model. In the current study, we applied the newly identified CP40 analog, CP40-KK, with two more lysine attached to the C terminus, in the MCT-induced PAH rat model.

rat C3 = assay: ELISA, direct binding of plasma C3 to coated peptide; details: peptide coated on ELISA plate, rat plasma dilutions, anti-C3 antibody, OD 450 nm
Description: CP40-KK and its control peptide were dissolved in coating buffer at different concentration and then added to wells of ELISA plate as designed. The coated plate was incubated at 4 °C overnight. Then the plate was incubated with plasma with the indicated dilution at 37 °C for 2 h. Next, the plate was incubated with the C3 antibody (1:2000, MP biomedicals, Irvine, CA, USA) at 37 °C for 2 h. Then the plate was washed for 3 times and incubated with corresponding HRP conjugated secondary antibodies (1:2000, Abcam, Cambridge, UK) at 37° for 1 h. Finally, TMB substrate was added to each well for indicated time at 37 °C and then the stop solution was added to stop the TMB reaction. OD values were measured at 450 nm using a microplate reader (Bio-tek, Vermont, USA). The coating buffer, wash buffer, TMB substrate, and stop solution were all bought from Boster Biological Technology (Wuhan, China).
CP40-KK and its control peptide were dissolved in coating buffer at different concentrations and then added to wells of ELISA plate as designed. The coated plate was incubated at 4°C overnight. After removing the coating buffer from the wells, the plate was washed using wash buffer 3 times. Then the plate was incubated with plasma with the indicated dilution at 37°C for 2h. […] OD values were measured at 450nm using a microplate reader (Bio-tek, Vermont, USA). […]

[2] = Plasma lipids and lung oxidative stress markers in PAH rats; type: in vivo, rat
Description: Blood samples were obtained from rats, and plasma lipid levels were measured with a total cholesterol assay kit and triglyceride assay kit (Nanjing Jiancheng Bioengineering Institute, Nanjing City, China). 2.5μL plasma or 2.5μL calibrator was added into 250μL working solution, and then incubated at 37 ℃ for 10 minutes. OD values were measured at 500nm using a microplate reader (Bio-tek, Vermont, USA).
Figure S2. The effect of CP40-KK on oxidative stress in the lungs of the PAH rats. Representative Western blots (A) and quantification (B) of the NOX1, Gp91phox, NOX4 and SOD2 in lung homogenates of rat (B; n=6 per group).

NLRP3 inflammasome = assay: Lung homogenate western blot of NF-κB p65 / NLRP3 inflammasome pathway in PAH rats; type: in vivo, rat; details: lung homogenates, MCT + CP40-KK vs MCT, n = 6 per group
Description: In the current study, two animal experiments were conducted successively. 30 rats were randomly divided into two groups (control group and MCT group, n = 15 per group) in the first experiment. MCT group rats received a single intraperitoneally injection of MCT (40 mg/kg) on day 1 to induce PAH while control group rats received an equivoluminal saline injection intraperitoneally. For the second animal experiment, the rats were assigned into four groups (control group, MCT group, CP40-KK group, and MCT + CP40-KK group, n = 15 per group). The control group was given the same volume of saline subcutaneously while the CP40-KK group rats only received CP40-KK (2 mg/kg) by subcutaneous injection from day 15 to day 28 continuously. The rats in the MCT group and MCT + CP40-KK group were received a single intraperitoneally injection of MCT (40 mg/kg) on day 1 and subcutaneously injected with either an equal volume of saline or CP40-KK (2 mg/kg) at day 15 to day 28 continuously. The dose selection of MCT and CP40-KK in our study was established based on previous studies.
Proteins were collected from the fresh frozen-rat lung tissues using RIPA lysis buffer. Protein concentration was quantified using a BCA reagent. Equal amounts of protein were electrophoretically separated on 10% SDS polyacrylamide gel, transferred to PVDF membranes, and probed with desired primary antibodies overnight at 4 °C. Membranes were then washed with TBST and incubated with anti-mouse IgG (1:5000) or anti-rabbit IgG (1:5000) horseradish peroxidase conjugated antibodies as indicated. […] To compare and quantify levels of proteins, the density of each band was measured using Image J software. Equal loading for total cell or tissue lysates was determined by β-Actin western blot.
(§1) Proteins were collected from the fresh frozen-rat lung tissues using RIPA lysis buffer. Protein concentration was quantified using a BCA reagent. […] To compare and quantify levels of proteins, the density of each band was measured using Image J software. Equal loading for total cell or tissue lysates was determined by β-Actin western blot^3,4.

[3] = test system: pulmonary vascular remodeling markers (α-SMA, PCNA); assay: Lung α-SMA immunohistochemistry and PCNA western blot in PAH rats; type: in vivo, rat; details: MCT + CP40-KK vs MCT group
Description: In the current study, two animal experiments were conducted successively. 30 rats were randomly divided into two groups (control group and MCT group, n = 15 per group) in the first experiment. MCT group rats received a single intraperitoneally injection of MCT (40 mg/kg) on day 1 to induce PAH while control group rats received an equivoluminal saline injection intraperitoneally. For the second animal experiment, the rats were assigned into four groups (control group, MCT group, CP40-KK group, and MCT + CP40-KK group, n = 15 per group). […]
After hemodynamic measurements, the lungs were perfused with cold phosphate-buffered saline (PBS) and fixed in 4% formaldehyde for 24 h. […] Immunolabels were detected with 3, 3-Diaminobenzidine (DAB), after which the nuclei were counterstained with hematoxylin. […] For quantification analysis, the mean integrated optical density (IOD) for immunohistochemistry was determined using Image J software (National Institutes of Health, Bethesda, MD).
as §1, with “blot.” for “blot^3,4.”

- tail bleeding time (Tail bleeding time): significantly prolong
- direct binding of rat C3 and CP40-KK (OD450) (rat C3): specific binding
- effect on oxidative stress (NOX1, Gp91phox, NOX4, SOD2) ([2]; lung homogenates, western blot, Figure S2, n=6 per group): no effect
- effect on lipid metabolism (triglyceride, cholesterol) ([2]; rat plasma, PAH model groups, Figure S1): no effect
SMILES: CC[C@H](C)[C@H](NC(=O)[C@H](N)Cc1ccc(O)cc1)C(=O)N[C@H]1CSSC[C@@H](C(=O)N(C)[C@H](C(=O)N[C@@H](CCCCN)C(=O)N[C@@H](CCCCN)C(N)=O)[C@@H](C)CC)NC(=O)[C@H](CCCNC(=N)N)NC(=O)[C@H](Cc2c[nH]cn2)NC(=O)CN(C)C(=O)[C@H](Cc2c[nH]c3ccccc23)NC(=O)[C@H](CC(=O)O)NC(=O)[C@H](CCC(N)=O)NC(=O)[C@H](Cc2cn(C)c3ccccc23)NC(=O)[C@H](C(C)C)NC1=O [CP40-KK] (H-[dY]ICV[Trp(1-Me)]QDW[Sar]HRC[NMeI]KK-NH2; disulfide 3-12 (inferred))
- improvement in solubility in comparison with parental peptide CP40 ([1]; at physiological pH): > 200 fold
- apparent clearance compared to CP40 (decreased) ([1]; non-human primates): ~2.6 fold
- maximum concentration compared to CP40 (higher) ([1]; non-human primates): twofold
- terminal half-life compared to CP40 (higher) ([1]; non-human primates): fivefold
- NF-κB subunit p65 phosphorylation (NLRP3 inflammasome): significantly block
- NLRP3 inflammasome activation (NLRP3 inflammasome): significantly block
- production of proinflammatory cytokines IL-1β and IL-18 (NLRP3 inflammasome): reduced
- expression of α-SMA in walls of small pulmonary arteries ([3]; immunohistochemistry): reduced significantly
- PCNA expression in lung homogenates ([3]; western blot, n = 6 per group): decreased
